# Key:
# [1] = biological target: Human neutrophil elastase (Homo sapiens (Human), UniProt P08246); assay: Human Neutrophil Elastase Assay; assay type: biochemical; conditions: substrate MeOSuc-Ala-Ala-Pro-Val-AMC 250 μM, pH 7.5
# [2] = biological target: neutrophil elastase in zymosan-stimulated human plasma (Homo sapiens (Human), UniProt P08246); assay: Neutrophil elastase inhibitory activity in human plasma; assay type: biochemical; conditions: human plasma from zymosan-stimulated blood
# [3] = Metabolic stability with human liver microsomes; assay type: in vitro ADME; conditions: pH 7.6; pooled human liver microsomes, 1 μM test compound, 37° C.; read-out: t1/2 INVITRO
# [4] = system: human hepatocytes; assay: Metabolic stability with human hepatocytes; assay type: in vitro ADME; conditions: 1 μM test compound, well stirred model
# Protocol: Assay for the Determination of Metabolic Stability with Human Hepatocytes
# The metabolic degradation of the test compound is assayed in a human hepatocyte suspension. Human hepatocytes (typically cryopreserved) are incubated in an appropriate buffer system (e.g. Dulbecco's modified eagle medium plus 3.5 μg glucagon/500 mL, 2.5 mg insulin/500 mL and 3.75 mg/500 mL hydrocortison) containing 5% species serum. Following a (typically) […] preincubation in an incubator (37° C., 10% CO2), 5 μl of test compound solution (80 μM; from […] stock solution in DMSO diluted 1:25 with medium) are added into 395 μl hepatocyte suspension (cell density in the range 0.25-5*10^6 cells/mL, typically 1*10^6 cells/mL; final concentration of test compound 1 μM, final DMSO concentration 0.05%). The cells are incubated for six hours (incubator, orbital shaker) and samples (25 μl) are taken at 0, 0.5, 1, 2, 4 and 6 hours. Samples are transferred into acetonitrile and pelleted by centrifugation (5 min) The supernatant is transferred to a new 96-deepwell plate, evaporated under nitrogen and resuspended. The decline of parent compound is analyzed by LC-MS/MS.
# The intrinsic clearance CL_[…] is calculated as follows: CL_[…]=Dose/AUC=(C0/CD)/(AUD+clast/k)*1,000/60
# (C0: initial concentration in the incubation [μM], CD: cell density of vital cells [10^6 cells/mL], AUD: area under the data [μM*h], clast: concentration of last data point [μM], k: slope of the regression line for parent decline [h^−1])
# The calculated in vitro hepatic intrinsic clearance Qh can be scaled up to the intrinsic in vivo hepatic clearance and used to predict hepatic in vivo blood clearance (CL) by the use of a liver model (well stirred model): CL_[…]_INVIVO [ml/min/kg]=(CL_[…] [μL/min/10^6 cells]*hepatocellularity [10^6 cells/g liver]*liver factor [g/kg bodyweight])/1,000 CL [ml/min/kg]=CL_[…]_INVIVO [ml/min/kg]*hepatic blood flow [ml/min/kg]/(CL_[…]_INVIVO [ml/min/kg]+hepatic blood flow [ml/min/kg]) Qh [%]=CL [ml/min/kg]/hepatic blood flow [ml/min/kg])
# (Hepatocellularity, human: 120*10^6 cells/g liver; liver factor, human: 25.7 g/kg bodyweight; blood flow, human: 21 ml/(min*kg))
# The calculated in-vitro hepatic intrinsic clearance values of selected compounds in the metabolic stability assay with human hepatocytes described above are listed in Table 15.
# [5] = Aqueous solubility (High Throughput Method); assay type: physicochemical; conditions: McIlvaine buffer pH 6.8 with 2.5% DMSO, kinetic from dmso stock, McIlvaine buffer pH 6.8, 2.5% DMSO, 24 h shaking
# Protocol: Assay for Determination of Aqueous Solubility (“High Throughput Method”)
# Starting from a […] DMSO stock solution, aliquots are diluted with acetonitrile/water (1/1) and McIlvaine buffer pH 6.8, respectively. After 24 h of shaking, the solutions or suspensions are filtered and analyzed by LC-UV. The amount dissolved in buffer is compared to the amount dissolved in the acetonitrile/water (1/1) solution. Solubility is measured from 0.001 to 0.125 mg/ml at a DMSO concentration of 2.5%. If more than 90% of the compound is dissolved in buffer, the value is marked with “>”.
# [6] = biological target: cytochrome P450 2C9 (Homo sapiens (Human), UniProt P11712); assay: Cytochrome P450 2C9 inhibition; assay type: in vitro ADME; conditions: human liver microsomes, Diclofenac hydroxylation; read-out: IC50 (CYP 2C9)
# cytochrome P450 2C9, sequence (P11712 whole entry): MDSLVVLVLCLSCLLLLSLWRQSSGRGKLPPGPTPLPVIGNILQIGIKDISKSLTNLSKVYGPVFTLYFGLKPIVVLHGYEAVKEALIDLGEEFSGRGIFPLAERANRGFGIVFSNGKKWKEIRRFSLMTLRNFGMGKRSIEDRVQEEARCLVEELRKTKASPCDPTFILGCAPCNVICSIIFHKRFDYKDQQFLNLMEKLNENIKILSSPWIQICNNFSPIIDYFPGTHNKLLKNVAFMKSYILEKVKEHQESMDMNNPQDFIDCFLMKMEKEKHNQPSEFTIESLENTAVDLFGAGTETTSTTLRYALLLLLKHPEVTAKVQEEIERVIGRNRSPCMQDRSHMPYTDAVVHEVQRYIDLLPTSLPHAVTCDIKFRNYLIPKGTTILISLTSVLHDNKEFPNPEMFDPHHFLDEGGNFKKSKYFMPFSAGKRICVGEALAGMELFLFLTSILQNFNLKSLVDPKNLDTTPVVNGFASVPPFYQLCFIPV
# From the text: Assay for Determination of Cytochrome P450 2C9 Inhibition
# (I=inhibitor concentration, S=slope factor, B=background activity)
# [7] = biological target: hERG (human ether-a-go-go-related gene) potassium channel (Homo sapiens (Human), UniProt Q12809); assay: hERG inhibition patch clamp assay; assay type: cell-based
# hERG (human ether-a-go-go-related gene) potassium channel, sequence (Q12809 whole entry): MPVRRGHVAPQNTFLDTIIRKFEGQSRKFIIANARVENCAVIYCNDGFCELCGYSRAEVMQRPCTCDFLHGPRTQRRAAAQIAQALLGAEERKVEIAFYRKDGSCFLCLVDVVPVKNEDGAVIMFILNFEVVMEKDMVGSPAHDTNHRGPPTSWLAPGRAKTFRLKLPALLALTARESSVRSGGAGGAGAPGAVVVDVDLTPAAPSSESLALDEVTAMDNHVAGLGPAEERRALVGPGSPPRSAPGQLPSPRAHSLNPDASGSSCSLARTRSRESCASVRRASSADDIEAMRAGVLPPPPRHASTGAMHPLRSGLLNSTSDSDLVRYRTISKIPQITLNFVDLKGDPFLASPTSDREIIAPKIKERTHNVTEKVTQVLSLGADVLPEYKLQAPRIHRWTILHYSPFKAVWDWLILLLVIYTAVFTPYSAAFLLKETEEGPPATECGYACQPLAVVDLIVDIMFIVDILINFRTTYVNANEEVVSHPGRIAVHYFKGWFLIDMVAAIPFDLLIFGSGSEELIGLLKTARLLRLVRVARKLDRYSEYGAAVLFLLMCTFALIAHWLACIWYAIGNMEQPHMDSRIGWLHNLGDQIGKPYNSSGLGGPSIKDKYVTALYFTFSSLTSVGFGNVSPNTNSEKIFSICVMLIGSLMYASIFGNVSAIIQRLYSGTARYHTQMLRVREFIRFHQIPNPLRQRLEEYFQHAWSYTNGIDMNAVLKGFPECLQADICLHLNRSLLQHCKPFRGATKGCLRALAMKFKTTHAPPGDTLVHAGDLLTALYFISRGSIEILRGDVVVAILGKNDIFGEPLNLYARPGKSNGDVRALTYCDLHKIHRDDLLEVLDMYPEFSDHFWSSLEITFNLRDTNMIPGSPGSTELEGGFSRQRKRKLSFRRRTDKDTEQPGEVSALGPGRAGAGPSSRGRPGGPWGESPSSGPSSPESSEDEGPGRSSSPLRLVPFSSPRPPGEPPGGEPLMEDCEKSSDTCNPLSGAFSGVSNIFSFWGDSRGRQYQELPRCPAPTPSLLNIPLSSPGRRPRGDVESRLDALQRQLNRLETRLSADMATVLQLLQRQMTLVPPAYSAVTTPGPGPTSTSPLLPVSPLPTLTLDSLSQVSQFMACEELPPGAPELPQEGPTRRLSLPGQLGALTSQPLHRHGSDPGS
# [8] = biological target: hERG potassium channel (Homo sapiens (Human), UniProt Q12809); assay: hERG inhibition patch clamp assay; assay type: cell-based; conditions: human, @ 10 μM
# hERG potassium channel, sequence (Q12809 whole entry): as above
# neutrophil elastase in zymosan-stimulated human plasma, sequence (P08246 30-247): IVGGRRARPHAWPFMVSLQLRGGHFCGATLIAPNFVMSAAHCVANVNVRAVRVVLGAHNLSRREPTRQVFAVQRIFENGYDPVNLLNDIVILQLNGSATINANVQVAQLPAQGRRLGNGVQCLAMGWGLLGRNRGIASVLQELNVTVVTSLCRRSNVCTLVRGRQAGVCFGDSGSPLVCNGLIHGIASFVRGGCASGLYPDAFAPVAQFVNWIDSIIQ
# Human neutrophil elastase, sequence (P08246 30-247): as above
IC50 [1] [nM],EC50 [2] [nM],half-life at 1 μM [3] [h],Qh [4] [%],solubility at 24 h [5] [µg/mL],IC50 [6] [nM],SMILES,IC50 [7] [nM],inhibition at 10 µM [8] [%]
1.9,7,> 2.17,10,48,> 50000,"CN1C(=O)N(c2cccc(C(F)(F)F)c2)C2=C(C(=O)CC2)[C@H]1c1ccc(C#N)cc1CNC(C)(C)C [Example 24, 3-(tert-Butylamino-methyl)-4-[(R)-3-methyl-2,5-dioxo-1-(3-trifluoromethyl-phenyl)-2,3,4,5,6,7-hexahydro-1H-cyclopentapyrimidin-4-yl]-benzonitrile]",> 30000,7
2.4,1,> 2.17,12,84,> 50000,"CN1C(=O)N(c2cccc(C(F)(F)F)c2)C2=C(C(=O)CC2)[C@H]1c1ccc(C#N)cc1C(N)=O [Example 2, 5-Cyano-2-[(R)-3-methyl-2,5-dioxo-1-(3-trifluoromethyl-phenyl)-2,3,4,5,6,7-hexahydro-1H-cyclopentapyrimidin-4-yl]-benzamide]",> 30000,4
< 1,1,> 2.17,13,53,> 50000,"CN1C(=O)N(c2cccc(C(F)(F)F)c2)C2=C(C(=O)CC2)[C@H]1c1ccc(C#N)cc1-c1ccc(=O)n(C)c1 [Example 23, 4-[(R)-3-Methyl-2,5-dioxo-1-(3-trifluoromethyl-phenyl)-2,3,4,5,6,7-hexahydro-1H-cyclopentapyrimidin-4-yl]-3-(1-methyl-6-oxo-1,6-dihydro-pyridin-3-yl)-benzonitrile]",> 30000,5

# Reference: patent publication US9458113B2 (Boehringer Ingelheim International GmbH, priority 2014, dated 2016)
